Data as given in US20250313563A1, “GLYCOGEN SYNTHASE KINASE 3 INHIBITORS AND USES THEREOF” (The Broad Institute, Inc., priority 2022, published 2025).
Like-named read-outs stand apart in the source and are kept apart here.

Key:
[1] = target: GSK3α (GST-full length GSK3α) (Homo sapiens (Human), UniProt P49840); experiment: GSK3α TR-FRET kinase assay; format: biochemical
Procedure, shortened: (§1)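 Compound was preincubated 30 min with 1 nM GST-GSK3 enzyme. Reaction ran 100 min at ambient temperature in Tris pH 7.5/MgCl2 with 200 nM biotinylated pS645-glycogen synthase 631-650 peptide and ATP (4 μM GSK3α, 2 μM GSK3b, or 1 mM). The EDTA-stopped reaction was read by TR-FRET (Tb-anti-pSer641/streptavidin-d2), and IC50s were fitted.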

[2] = target: GSK3b (GST-full length GSK3b) (Homo sapiens (Human), UniProt P49841); experiment: GSK3b TR-FRET kinase assay; format: biochemical
Procedure, shortened: as §1

[3] = 1 nM GSK3α, 4 μM ATP, 30 minute preincubation, read-out: GSK3-A TR-FRET BIOCHEMICAL (TR-FRET), IC50
[4] = 1 nM GSK3b, 2 μM ATP, 30 minute preincubation, read-out: GSK3-B TR-FRET BIOCHEMICAL (TR-FRET), IC50
[5] = 1 nM GSK3α, 4 μM ATP, 30 minute preincubation, Table 16, read-out: GSK3-A TR-FRET BIOCHEMICAL (TR-FRET)
[6] = 1 nM GSK3b, 2 μM ATP, 30 minute preincubation, Table 16, read-out: GSK3-B TR-FRET BIOCHEMICAL (TR-FRET)
[7] = 1 nM GSK3α, 4 μM ATP, 30 minute preincubation, Table 16, read-out: GSK3-A TR-FRET BIOCHEMICAL (TR-FRET), IC50
[8] = 1 nM GSK3b, 2 μM ATP, 30 minute preincubation, Table 16, read-out: GSK3-B TR-FRET BIOCHEMICAL (TR-FRET), IC50
[9] = read-out: GSK3-A (TR-FRET 1 mM ATP), GMean, IC50, 1 mM ATP, geometric mean
[10] = read-out: GSK3-B (TR-FRET 1 mM ATP), GMean, IC50, 1 mM ATP, geometric mean

Chain of GSK3b (GST-full length GSK3b) (P49841 whole entry): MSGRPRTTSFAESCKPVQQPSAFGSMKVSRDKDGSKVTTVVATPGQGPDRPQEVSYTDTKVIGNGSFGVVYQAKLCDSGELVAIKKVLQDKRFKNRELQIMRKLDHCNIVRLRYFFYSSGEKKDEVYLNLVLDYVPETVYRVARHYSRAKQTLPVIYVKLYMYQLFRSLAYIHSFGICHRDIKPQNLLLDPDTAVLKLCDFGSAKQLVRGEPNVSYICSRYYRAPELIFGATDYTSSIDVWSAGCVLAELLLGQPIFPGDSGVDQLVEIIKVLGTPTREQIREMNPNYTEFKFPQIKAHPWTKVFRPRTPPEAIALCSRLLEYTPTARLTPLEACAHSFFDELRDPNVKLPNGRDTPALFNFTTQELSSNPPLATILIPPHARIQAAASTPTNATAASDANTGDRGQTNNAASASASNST
Chain of GSK3α (GST-full length GSK3α) (P49840 whole entry): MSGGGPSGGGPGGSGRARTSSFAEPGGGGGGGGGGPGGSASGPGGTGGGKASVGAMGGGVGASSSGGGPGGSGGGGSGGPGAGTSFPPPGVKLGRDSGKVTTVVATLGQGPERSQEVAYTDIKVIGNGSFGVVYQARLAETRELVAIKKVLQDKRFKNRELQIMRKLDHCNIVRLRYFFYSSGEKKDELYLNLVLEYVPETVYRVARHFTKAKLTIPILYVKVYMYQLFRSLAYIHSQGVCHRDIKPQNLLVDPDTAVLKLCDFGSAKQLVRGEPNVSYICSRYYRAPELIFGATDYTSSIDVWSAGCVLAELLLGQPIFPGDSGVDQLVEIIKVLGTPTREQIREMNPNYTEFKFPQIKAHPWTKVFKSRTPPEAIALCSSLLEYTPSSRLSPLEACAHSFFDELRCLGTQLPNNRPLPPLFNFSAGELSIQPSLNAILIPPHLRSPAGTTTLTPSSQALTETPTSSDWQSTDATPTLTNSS

SMILES	IC50 [1, 7] [µM]	IC50 [2, 8] [µM]	further results
CC1(C)CC(=O)C2=C(C1)Nc1n[nH]cc1[C@]21COC2(CN(S(C)(=O)=O)C2)C1 [Compound 926823]	–	–	IC50 [1, 3]: 0.1 to 1 µM; IC50 [2, 4]: 1 to 5 µM
C[C@H]1C[C@]2(CCN1S(C)(=O)=O)C1=C(CC(C)(C)CC1=O)Nc1n[nH]cc12 [Compound 926827]	–	–	IC50 [1, 5]: ≤ 0.1 µM; IC50 [2, 6]: ≤ 0.1 µM
C[C@H]1C[C@]2(CCN1S(=O)(=O)c1ccn(C)n1)C1=C(CC(C)(C)CC1=O)Nc1n[nH]cc12 [Compound 926832]	–	–	IC50 [1, 5]: ≤ 0.1 µM; IC50 [2, 6]: 0.1 to 1 µM
CCC1(c2cccc(-c3cnn4c3CCCC4)c2)C2=C(CC(C)(C)CC2=O)Nc2n[nH]cc21 (centres unmarked) [Compound 926836]	≤ 0.1	0.1 to 1	–
CCC1(c2cccc(-c3cn(C)nc3C)c2)C2=C(CC(C)(C)CC2=O)Nc2n[nH]cc21 (centres unmarked) [Compound 926840]	≤ 0.1	≤ 0.1	–
CCC1(c2cccc(-c3cnnc(C)c3)c2)C2=C(CC(C)(C)CC2=O)Nc2n[nH]cc21 (centres unmarked) [Compound 926844]	≤ 0.1	0.1 to 1	–
CC(=O)N1CC2(C1)C[C@]1(CO2)C2=C(CC(C)(C)CC2=O)Nc2n[nH]cc21 [Compound 926861]	–	–	IC50 [1, 3]: ≤ 0.1 µM; IC50 [1, 9]: ≤ 0.1 µM; IC50 [2, 4]: ≤ 0.1 µM; IC50 [2, 10]: ≤ 0.1 µM
CC(=O)N1CC2(C1)C[C@@]1(CO2)C2=C(CC(C)(C)CC2=O)Nc2n[nH]cc21 [Compound 926872]	–	–	IC50 [1, 3]: 0.1 to 1 µM; IC50 [2, 4]: 0.1 to 1 µM
CCC1(c2cccc(-c3ccnc(C)c3)c2)C2=C(CC(C)(C)NC2=O)Nc2n[nH]cc21 (centres unmarked) [Compound 927325]	–	–	IC50 [1, 3]: ≤ 0.1 µM; IC50 [1, 9]: 0.1 to 1 µM; IC50 [2, 4]: 0.1 to 1 µM; IC50 [2, 10]: > 5 µM
CCC1(c2cccc(-c3cc(C)ncc3F)c2)C2=C(CC(C)(C)CC2=O)Nc2n[nH]cc21 (centres unmarked) [Compound 927339]	1 to 5	> 5	–
CC[C@@]1(c2cccc(-c3ccnc(C)c3F)c2)C2=C(CC(C)(C)CC2=O)Nc2n[nH]c(C)c21 [Compound 927340]	> 5	> 5	–
CCC1(c2cccc(NS(C)(=O)=O)c2)C2=C(CC(C)(C)CC2=O)Nc2n[nH]cc21 (centres unmarked) [Compound 927341]	1 to 5	1 to 5	–
CCC1(c2cccc(-c3ccnnc3)c2)C2=C(CC(C)(C)CC2=O)Nc2n[nH]cc21 (centres unmarked) [Compound 927342]	≤ 0.1	≤ 0.1	–
CC1(C)CC(=O)C2=C(C1)Nc1n[nH]cc1C21CCCS(=O)(=O)CC1 (centres unmarked) [Compound 927343]	–	–	IC50 [1, 5]: ≤ 0.1 µM; IC50 [2, 6]: 0.1 to 1 µM
CCC1(c2cccc(S(=O)(=O)C3CCOCC3)c2)C2=C(CC(C)(C)CC2=O)Nc2n[nH]cc21 (centres unmarked) [Compound 927344]	≤ 0.1	≤ 0.1	–
CCC1(c2cccc(-c3cc(C)ncc3F)c2)C2=C(CC(C)(C)CC2=O)Nc2n[nH]cc21 (centres unmarked) [Compound 927346]	≤ 0.1	≤ 0.1	IC50 [1, 9]: ≤ 0.1 µM; IC50 [2, 10]: 1 to 5 µM
CC[C@]1(c2cccc(-c3ccnn3C)c2)C2=C(CC(C)(C)NC2=O)Nc2n[nH]cc21 [Compound 927390]	–	–	IC50 [1, 3]: 0.1 to 1 µM; IC50 [2, 4]: > 5 µM
CCC1(c2cccc(N(C)c3nccc(OC)n3)c2)C2=C(CC(C)(C)CC2=O)Nc2n[nH]cc21 (centres unmarked) [Compound 929387]	≤ 0.1	≤ 0.1	–
CCC1(c2cccc(C(F)(F)F)c2)C2=C(CN(Cc3ccccc3)C2=O)Nc2n[nH]cc21 (centres unmarked) [Compound 929388]	–	–	IC50 [1, 9]: 0.1 to 1 µM; IC50 [2, 6]: 0.1 to 1 µM; IC50 [2, 10]: > 5 µM
CCn1nccc1-c1cccc(C2(CC)C3=C(CC(C)(C)CC3=O)Nc3n[nH]cc32)c1 (centres unmarked) [Compound 929398]	≤ 0.1	≤ 0.1	–
CCC1(c2cccc(-c3ccnn3C(C)C)c2)C2=C(CC(C)(C)CC2=O)Nc2n[nH]cc21 (centres unmarked) [Compound 929399]	≤ 0.1	≤ 0.1	–
CCC1(c2cccc(-c3ccnn3CCC(C)C)c2)C2=C(CC(C)(C)CC2=O)Nc2n[nH]cc21 (centres unmarked) [Compound 929401]	≤ 0.1	≤ 0.1	–
CCC1(c2cccc(-c3cc(C)nn3C)c2)C2=C(CC(C)(C)CC2=O)Nc2n[nH]cc21 (centres unmarked) [Compound 929402]	≤ 0.1	0.1 to 1	–
CC1(C)CC(=O)C2=C(C1)Nc1n[nH]cc1C21CN(Cc2ccccc2)C1 [Compound 929436]	> 5	> 5	–
CC1(C)CC(=O)C2=C(C1)Nc1n[nH]cc1C21CCN(S(=O)(=O)Cc2ccccc2)CC1 [Compound 929437]	–	–	IC50 [1, 3]: ≤ 0.1 µM; IC50 ([1]; GSK3-A (TR-FRET 1 mM ATP), GMean, IC50, 1 mM ATP, geometric mean): ≤ 0.1 µM; IC50 [2, 4]: ≤ 0.1 µM; IC50 ([2]; GSK3-B (TR-FRET 1 mM ATP), GMean, IC50, 1 mM ATP, geometric mean): 0.1 to 1 µM
CC1(C)CC(=O)C2=C(C1)Nc1n[nH]cc1C21CN(Cc2ccccn2)C1 [Compound 929438]	> 5	> 5	–

SMILES	IC50 [1, 7] [µM]	IC50 [2, 8] [µM]	further results
Cn1cc(CN2CC3(C2)C2=C(CC(C)(C)CC2=O)Nc2n[nH]cc23)cn1 [Compound 929439]	> 5	> 5	–
CC1(C)CC(=O)C2=C(C1)Nc1n[nH]cc1C21CN(S(=O)(=O)CC2CC2)C1 [Compound 929440]	–	–	IC50 [1, 5]: ≤ 0.1 µM; IC50 [2, 6]: ≤ 0.1 µM
CC1(C)CC(=O)C2=C(C1)Nc1n[nH]cc1C21CN(CCc2ccccc2)C1 [Compound 929441]	> 5	> 5	–
CC[C@]1(c2cccc(N(C)C(=O)c3ccn(C)n3)c2)C2=C(CC(C)(C)CC2=O)Nc2n[nH]cc21 [Compound 929442]	≤ 0.1	0.1 to 1	–
CC[C@@]1(c2cccc(-c3ccnnc3)c2)C2=C(CC(C)(C)CC2=O)Nc2n[nH]cc21 [Compound 929443]	> 5	> 5	–
CCc1cc(-c2cccc(C3(CC)C4=C(CC(C)(C)CC4=O)Nc4n[nH]cc43)c2)cc(CC)n1 (centres unmarked) [Compound 929445]	1 to 5	> 5	–
CC1(C)CC(=O)C2=C(C1)Nc1n[nH]cc1C21CN(C2CCCCC2)C1 [Compound 929446]	1 to 5	1 to 5	–
CCCS(=O)(=O)c1cccc(C2(CC)C3=C(CC(C)(C)CC3=O)Nc3n[nH]cc32)c1 (centres unmarked) [Compound 929447]	–	–	IC50 [1, 9]: ≤ 0.1 µM; IC50 [2, 10]: 0.1 to 1 µM
CCN1CC2(C1)C1=C(CC(C)(C)CC1=O)Nc1n[nH]cc12 [Compound 929448]	> 5	> 5	–
CCC1(c2cccc(N3CCc4cnccc4C3)c2)C2=C(CC(C)(C)CC2=O)Nc2n[nH]cc21 (centres unmarked) [Compound 929449]	1 to 5	1 to 5	–
CC[C@]1(c2cc(N(C)C(C)=O)ccc2F)C2=C(CC(C)(C)CC2=O)Nc2n[nH]c(C)c21 [Compound 929451]	> 5	> 5	–
CC[C@]1(c2cccc(N(C)c3ccnc(F)c3)c2)C2=C(CC(C)(C)CC2=O)Nc2n[nH]cc21 [Compound 929453]	1 to 5	> 5	–
CC[C@]1(c2cccc(-c3ccnnc3)c2)C2=C(CC(C)(C)CC2=O)Nc2n[nH]cc21 [Compound 929454]	≤ 0.1	≤ 0.1	IC50 [1, 9]: 0.1 to 1 µM; IC50 [2, 10]: 1 to 5 µM
CC[C@@]1(c2cccc(N(C)C(=O)c3ccn(C)n3)c2)C2=C(CC(C)(C)CC2=O)Nc2n[nH]cc21 [Compound 929455]	> 5	> 5	–
CCC1(c2cccc(C(F)(F)F)c2)C2=C(CCN(c3ccccc3)C2=O)Nc2n[nH]cc21 (centres unmarked) [Compound 929474]	–	–	IC50 [1, 3]: ≤ 0.1 µM; IC50 [2, 4]: 0.1 to 1 µM
CC[C@]1(c2cccc(C(F)(F)F)c2)C2=C(CCN(c3ccccc3)C2=O)Nc2n[nH]cc21 [Compound 929475]	–	–	IC50 [1, 3]: > 5 µM; IC50 [2, 4]: > 5 µM
CC[C@@]1(c2cccc(C(F)(F)F)c2)C2=C(Nc3n[nH]cc31)[C@@H](C)N(Cc1ccccc1)C2=O [Compound 930330]	–	–	IC50 [1, 3]: ≤ 0.1 µM; IC50 [2, 4]: 0.1 to 1 µM
CC[C@@]1(c2cccc(C(F)(F)F)c2)C2=C(Nc3n[nH]cc31)[C@H](C)N(Cc1ccccc1)C2=O [Compound 930331]	–	–	IC50 [1, 3]: ≤ 0.1 µM; IC50 [2, 4]: 0.1 to 1 µM
CC[C@]1(c2cccc(C(F)(F)F)c2)C2=C(Nc3n[nH]cc31)[C@H](C)N(Cc1ccccc1)C2=O [Compound 930333]	–	–	IC50 [1, 3]: > 5 µM; IC50 [2, 4]: > 5 µM
CC1(C)CC(=O)C2=C(C1)Nc1n[nH]cc1[C@@]21CCCc2ccccc21 [Compound 930565]	1 to 5	> 5	–
CC1(C)CC(=O)C2=C(C1)Nc1n[nH]cc1[C@]21CCCc2ccccc21 [Compound 930566]	≤ 0.1	0.1 to 1	–
CCC1(c2cccc(-c3ccnc4c3CCCC4)c2)C2=C(CC(C)(C)CC2=O)Nc2n[nH]cc21 (centres unmarked) [Compound 932625]	≤ 0.1	≤ 0.1	–
CCC1(c2cccc(-c3ccnc(OC(C)C)c3)c2)C2=C(CC(C)(C)CC2=O)Nc2n[nH]cc21 (centres unmarked) [Compound 932626]	0.1 to 1	0.1 to 1	–
CCC1(c2cccc(-c3ccncc3OC)c2)C2=C(CC(C)(C)CC2=O)Nc2n[nH]cc21 (centres unmarked) [Compound 932627]	≤ 0.1	≤ 0.1	–
CCC1(c2cccc(-c3ccnc(OC)c3C)c2)C2=C(CC(C)(C)CC2=O)Nc2n[nH]cc21 (centres unmarked) [Compound 932628]	≤ 0.1	0.1 to 1	–
